According to publication PMC7584476, “Safety and efficacy of BAY1436032 in IDH1-mutant AML: phase I study results” (Leukemia, 2020):

Test system: subjects with mIDH1 advanced AML
Experiment: Phase I study: safety and tolerability (TEAE, DLT, MTD, ECG)
Type: in vivo
Protocol: This study was an open-label, nonrandomized, multicenter phase I trial. Subjects were screened at 13 hospital sites in 2 countries (USA and Germany). The study was to consist of dose-escalation followed by dose-expansion. The MTD identified in dose-escalation was to be used in the dose-expansion. If MTD was not reached in dose-escalation, a dose for the expansion would be selected based on available PK, pharmacodynamic, safety, and efficacy data. BAY1436032 was administered twice-daily (BID) in continuous 28-day cycles. In dose-escalation, up to 9 evaluable subjects could be enrolled per cohort, with a minimum of 3 dose-limiting toxicity (DLT)-free evaluable subjects required prior to escalating to the next highest dose. Bayesian dose-DLT modeling was performed to help guide dosing decisions.
DLTs were differentially defined for nonhematopoietic versus hematopoietic toxicities. Nonhematopoietic toxicities of ≥grade 3 occurring during the first cycle of treatment were to be considered DLTs with the following exceptions: (1) Alopecia and nausea controlled by medical management; (2) Tumor lysis syndrome if successfully managed clinically and resolved within 7 days without any end-organ damage; (3) Differentiation syndrome (DS) if successfully managed clinically and resolved within 7 days without any end-organ damage; (4) Asymptomatic ≥grade 3 electrolyte abnormalities not considered clinically significant by the investigator. […] For certain toxicities such as laboratory assessments without a clear clinical correlate, a discussion between the investigator and the sponsor determined whether the adverse event (AE) should be assessed as a DLT.
DLTs identified during the first cycle of treatment were used to guide dose-escalation decisions and to determine the MTD, and if safety issues appeared in subsequent cycles they were also to be considered. Hydroxyurea was permitted during the first cycle if white blood cell (WBC) exceeded 20 × 10^9/L and was also permitted for treatment of DS.
Safety and tolerability were evaluated by analysis of adverse events, physical examinations, vital signs, ECOG performance status, and various laboratory assessments. For safety monitoring, subjects were scheduled for clinic visits every week for the initial three cycles of treatment, after which time visits could be reduced to every-other-week with investigator and sponsor agreement. Cardiac function was assessed with triplicate 12-lead electrocardiograms (ECG) at screening, C1-D1, C1-D2, C1-D15, D1 of every subsequent cycle, and at treatment end. […] AEs are presented by the Medical Dictionary for Regulatory Activities (MedDRA) v21.1.

## C[C@H]1C[C@@H](n2c(Nc3ccc(OC(F)(F)F)cc3)nc3cc(CCC(=O)O)ccc32)CC(C)(C)C1 [BAY1436032]
300 mg BID, n=7
  Related TEAE Decreased appetite Grade 1: 1
  Related TEAE Decreased appetite Grade 2: 1
  Related TEAE Diarrhea Grade 2: 0
  Related TEAE Differentiation syndrome Grade 2: 0
  Related TEAE Differentiation syndrome Grade 3: 0
  Related TEAE Dyspnea Grade 1: 1
  Related TEAE Dyspnea Grade 2: 1
  Related TEAE Fatigue Grade 1: 0
  Related TEAE Fatigue Grade 2: 1
  Related TEAE Fatigue Grade 3: 0
  Related TEAE Hypomagnesaemia Grade 1: 1
  Related TEAE Nausea Grade 1: 1
  Related TEAE Nausea Grade 2: 1
  Related TEAE Sinus tachycardia Grade 1: 1
  Related TEAE Vomiting Grade 1: 2
  TEAE Abdominal pain upper Grade 1: 0
  TEAE Abdominal pain upper Grade 2: 0
  TEAE Acute kidney injury Grade 1: 1
  TEAE Acute kidney injury Grade 2: 1
  TEAE Acute kidney injury Grade 3: 0
  TEAE Anaemia Grade 3: 0
  TEAE Anaemia Grade 4: 1
  TEAE Anxiety Grade 1: 1
  TEAE Anxiety Grade 2: 0
  TEAE Arthralgia Grade 1: 0
  TEAE Arthralgia Grade 2: 0
  TEAE Constipation Grade 1: 0
  TEAE Constipation Grade 2: 1
  TEAE Contusion Grade 1: 1
  TEAE Contusion Grade 2: 0
  TEAE Cough Grade 1: 2
  TEAE Cough Grade 2: 1
  TEAE Decreased appetite Grade 1: 3
  TEAE Decreased appetite Grade 2: 1
  TEAE Decreased appetite Grade 3: 0
  TEAE Diarrhea Grade 1: 4
  TEAE Diarrhea Grade 2: 0
  TEAE Dry skin Grade 1: 2
  TEAE Dyspnoea Grade 1: 2
  TEAE Dyspnoea Grade 2: 1
  TEAE Dyspnoea Grade 3: 2
  TEAE Epistaxis Grade 1: 0
  TEAE Epistaxis Grade 2: 0
  TEAE Epistaxis Grade 3: 0
  TEAE Fall Grade 1: 0
  TEAE Fatigue Grade 1: 2
  TEAE Fatigue Grade 2: 1
  TEAE Fatigue Grade 3: 1
  TEAE Febrile neutropenia Grade 3: 2
  TEAE General physical health deterioration Grade 3: 0
  TEAE General physical health deterioration Grade 5: 0
  TEAE Gingivitis Grade 1: 2
  TEAE Haematuria Grade 1: 1
  TEAE Haematuria Grade 2: 0
  TEAE Haematuria Grade 3: 0
  TEAE Headache Grade 1: 1
  TEAE Headache Grade 2: 2
  TEAE Headache Grade 3: 0
  TEAE Hyperkalaemia Grade 1: 1
  TEAE Hyperkalaemia Grade 4: 0
  TEAE Hypertension Grade 2: 0
  TEAE Hypertension Grade 3: 0
  TEAE Hyperuricaemia Grade 1: 0
  TEAE Hyperuricaemia Grade 3: 0
  TEAE Hypokalaemia Grade 1: 2
  TEAE Hypokalaemia Grade 2: 0
  TEAE Hypokalaemia Grade 3: 1
  TEAE Hyponatraemia Grade 1: 2
  TEAE Hyponatraemia Grade 3: 0
  TEAE Hypophosphataemia Grade 1: 0
  TEAE Hypophosphataemia Grade 2: 1
  TEAE Leukocytosis Grade 2: 1
  TEAE Leukocytosis Grade 3: 1
  TEAE Lung infection Grade 3: 1
  TEAE Lung infection Grade 5: 1
  TEAE Nausea Grade 1: 1
  TEAE Nausea Grade 2: 1
  TEAE Nausea Grade 3: 0
  TEAE Oedema peripheral Grade 1: 3
  TEAE Oedema peripheral Grade 3: 1
  TEAE Pain in extremity Grade 1: 1
  TEAE Pain in extremity Grade 2: 0
  TEAE Pneumonia Grade 1: 0
  TEAE Pneumonia Grade 2: 1
  TEAE Pneumonia Grade 3: 1
  TEAE Pneumonia fungal Grade 2: 0
  TEAE Pneumonia fungal Grade 3: 0
  TEAE Pneumonia fungal Grade 4: 0
  TEAE Productive cough Grade 1: 0
  TEAE Productive cough Grade 2: 0
  TEAE Pyrexia Grade 1: 0
  TEAE Pyrexia Grade 2: 0
  TEAE Pyrexia Grade 3: 0
  TEAE Rash Grade 1: 0
  TEAE Rash Grade 2: 0
  TEAE Sepsis Grade 4: 2
  TEAE Sepsis Grade 5: 1
  TEAE Sinus tachycardia Grade 1: 2
  TEAE Thrombocytopenia Grade 4: 0
  TEAE Vomiting Grade 1: 3
  TEAE Weight decreased Grade 1: 2
  TEAE Weight decreased Grade 2: 0
  TEAE Weight decreased Grade 3: 0
600 mg BID, n=4
  Related TEAE Decreased appetite Grade 1: 0
  Related TEAE Decreased appetite Grade 2: 0
  Related TEAE Diarrhea Grade 2: 0
  Related TEAE Differentiation syndrome Grade 2: 0
  Related TEAE Differentiation syndrome Grade 3: 0
  Related TEAE Dyspnea Grade 1: 0
  Related TEAE Dyspnea Grade 2: 0
  Related TEAE Fatigue Grade 1: 1
  Related TEAE Fatigue Grade 2: 0
  Related TEAE Fatigue Grade 3: 0
  Related TEAE Hypomagnesaemia Grade 1: 0
  Related TEAE Nausea Grade 1: 1
  Related TEAE Nausea Grade 2: 0
  Related TEAE Sinus tachycardia Grade 1: 0
  Related TEAE Vomiting Grade 1: 1
  TEAE Abdominal pain upper Grade 1: 0
  TEAE Abdominal pain upper Grade 2: 0
  TEAE Acute kidney injury Grade 1: 0
  TEAE Acute kidney injury Grade 2: 0
  TEAE Acute kidney injury Grade 3: 1
  TEAE Anaemia Grade 3: 1
  TEAE Anaemia Grade 4: 0
  TEAE Anxiety Grade 1: 0
  TEAE Anxiety Grade 2: 0
  TEAE Arthralgia Grade 1: 0
  TEAE Arthralgia Grade 2: 0
  TEAE Constipation Grade 1: 0
  TEAE Constipation Grade 2: 0
  TEAE Contusion Grade 1: 0
  TEAE Contusion Grade 2: 0
  TEAE Cough Grade 1: 1
  TEAE Cough Grade 2: 0
